Test results reported in patent publication US20220280663A1, “[…] TARGETED […] ACTIVE SUBSTANCE OR LABEL […] SYSTEM” (CELLIS AG, priority 2016, published 2022).

Assays:
cancer cells = assay: Transfer of iron binding proteins from loaded leukocytes to co-cultured cancer cells; format: cell-based; settings: for transport to cancer cells from granulocytes: loaded granulocytes (FIG. 15); for transport to cancer cells from lymphocytes: loaded lymphocytes (FIG. 16); for transport to cancer cells from macrophages: loaded macrophages, mouse mammary, colon, canine mammary, human breast, pancreatic, bladder cancer cells; for transport to cancer cells from monocytes: loaded monocytes (FIG. 14)
Source text: However, in case of cancer cells the ratio of both cell types is crucial. The more macrophages the better and faster the transport is. The most efficient transfer to the cancer cells was observed when ratio of macrophages to cancer cells was 1:1 or more.
This transfer of compounds conjugated with anticancer drugs made the effect inducing apoptosis in cancer cells (FIG. 6, 13).
However, the ratio of both cell types is important. The more monocytes the better and faster the transport is. The most efficient transfer to the cancer cells was observed when ratio of monocytes to cancer cells was 1:1 or more.
However, the ratio of both cell types is crucial. The more granulocytes the better and faster the transport is. The most efficient transfer to the cancer cells was observed when ratio of granulocytes to cancer cells was 1:1 or more.
However, the ratio of both cell types is crucial. The more lymphocytes the better and faster the transport is. The most efficient transfer to the cancer cells was observed when ratio of lymphocytes to cancer cells was 1:1 or more.

CD45^+ leukocyte cell = assay: Uptake and storage of iron binding proteins by CD45+ leukocyte cells; format: cell-based; settings: incubation 1-4 hours in protein solution (ferritin 0.8 mg/ml; haemoglobin, transferrin 0.1 mg/ml), standard culture conditions
Method: (§1) Obtained cells are incubated in ferritin solution for a time and at the concentration sufficient to ensure proper ratio of ferritin/cell for their full load and also to ensure proper drug content to obtain therapeutic effect or contrast for proper imaging. The time and concentration may vary depending on the number of molecules encapsulated/adsorbed into the ferritin cage, status of cell activation, condition and number of their intended administration.
For example, to ensure proper load with ferritins, cells are incubated for 1-4 hours in ferritin solution 0.8 mg/ml in standard culture conditions. The frame of ferritin concentration may vary at least between 0.01 and 4 mg/ml as well as incubation time (5 min-6 hours or more). Adjusting time and concentration of ferritin load to cells, the influence of ferritin and treatment conditions on cell viability should be minded.
as §1, with “haemoglobin” for “ferritin”, “haemoglobin/cell” for “ferritin/cell”, “linked with” for “encapsulated/adsorbed into”, “haemoglobin molecule,” for “ferritin cage,”, “administration. […]” for “administration.”

Substance | transport to cancer cells from granulocytes (cancer cells) | transport to cancer cells from lymphocytes (cancer cells) | transport to cancer cells from macrophages (cancer cells) | transport to cancer cells from monocytes (cancer cells) | uptake of iron binding protein by cells (CD45^+ leukocyte cell)
haemoglobins: human haemoglobin prepared from fresh red cells (SEQ ID NO: 18 or 22) | very easily transport | very easily transport | very easily transport | very easily transport | very easily uptake
transferrins: human holo-transferrin purified from serum (SEQ ID NO: 28) | very easily transport | very easily transport | very easily transport | very easily transport | very easily uptake
